Assay results reported in article PMC12429925 (Molecules, 2025).
Read-outs that look alike come from different tables or passages of the source.

Assays:
Assay in all cases: cells
Format in all cases: cell-based
[1] = system: A2780 (human ovarian carcinoma) cells; details: for IC50: Homo sapiens
[2] = system: CCD18Co (non-malignant human fibroblasts); details: CCD-18Co
[3] = system: A549 (lung carcinoma) cells; details: Homo sapiens
[4] = system: HT29 (colorectal carcinoma) cells; details: Homo sapiens
[5] = system: A2780cis (ovarian carcinoma) cells; details: Homo sapiens
[6] = system: MCF7 (breast carcinoma) cells; details: Homo sapiens
[7] = system: panel of five different human tumor cell lines; details: read-out: IC50 range over tumor cell lines
[8] = A2780, 72 h, read-out: IC50 A2780
[9] = A549, 72 h, read-out: IC50 A549
[10] = HT-29, 72 h, read-out: IC50 HT29
[11] = MCF7, 72 h, read-out: IC50 MCF7

`CCCCCCCCCCCCCC(=O)NCc1ccc(O)c(OC)c1` [Compound 19, N-[(4-Hydroxy-3-methoxy)benzyl]tetradecanamide] was tested, and the IC50 [1, 8] was < 10 µM.

`CCCCCCCCCCCCCCCCC(=O)NCc1ccc(O)c(OC)c1` [Compound 25, N-[(4-Hydroxy-3-methoxy)benzyl]heptadecanamide] was tested, and the IC50 ([2]; 72 h, read-out: IC50 CCD18Co) was > 100 µM, the IC50 [3, 9] was 60.5 µM and the IC50 [4, 10] was 78.5 µM. The IC50 ([5]; 72 h, read-out: IC50 A2780cis) was > 100 µM and the IC50 [6, 11] was 38.4 µM.

For `CCCCCCCCCCCCC(=O)NCc1ccc(O)c(OC)c1` [Compound 17, N-[(4-Hydroxy-3-methoxy)benzyl]tridecanamide], the IC50 [1, 8] was < 10 µM.

With `CCCCCCCCCCCCCCCCCC(=O)NCc1ccc(O)c(OC)c1` [Compound 27, N-[(4-Hydroxy-3-methoxy)benzyl]octadecanamide] the “Selectivity index SI (IC50 CCD18Co/IC50 A2780)” value [1] was >29.0, the IC50 ([2]; 72 h, read-out: IC50 CCD18Co) was > 100 µM and the IC50 [3, 9] was 50.3 µM. For the same molecule, the IC50 [4, 10] was 42.4 µM, the IC50 ([5]; 72 h, read-out: IC50 A2780cis) was 76.4 µM and the IC50 [6, 11] was 32.6 µM.

With `CCCCCCCCCCCCCCC(=O)NCc1ccc(O)c(OC)c1` [Compound 21, N-[(4-Hydroxy-3-methoxy)benzyl]pentadecanamide] the IC50 [1, 8] was < 10 µM.

For `CCCCCCCCCCCC(=O)NCc1ccc(O)c(OC)c1` [Compound 15, N-[(4-Hydroxy-3-methoxy)benzyl]dodecanamide], the IC50 [1, 8] was < 10 µM.

For `CCCCCCCCCCCCCCCCCCC(=O)NCc1ccc(O)c(OC)c1` [Compound 29, N-[(4-Hydroxy-3-methoxy)benzyl]nonadecanamide], the IC50 ([2]; 72 h, read-out: IC50 CCD18Co) was > 100 µM, the IC50 [3, 9] was 55.3 µM and the IC50 [4, 10] was 68.4 µM. It also gave an IC50 ([5]; 72 h, read-out: IC50 A2780cis) of 59.5 µM and an IC50 [6, 11] of 15.9 µM.

In the case of `COc1cc(CNC(=O)CCCCC=CC(C)C)ccc1O` [A, 8-methyl-N-vanillyl-6-nonenamide, reference compound], the IC50 [7] is reported as 15 to 84 µM, the “Selectivity index SI (IC50 CCD18Co/IC50 A2780)” value [1] is reported as >6.3 and the IC50 [1, 8] is reported as 15.9 µM. For the same molecule, the IC50 ([1]; A2780, read-out: IC50 A2780, converted into μg/mL) was ~4.86 µg/mL, the IC50 ([2]; 72 h, read-out: IC50 CCD18Co) was > 100 µM and the IC50 ([2]; read-out: IC50 CCD18Co, converted into μg/mL) was > 30.5 µg/mL. For the same molecule, the IC50 [3, 9] was 70.3 µM, the IC50 ([3]; A549, read-out: IC50 A549, converted into μg/mL) was 21.5 µg/mL and the IC50 [4, 10] was 51 µM. For the same molecule, the IC50 ([4]; HT-29, read-out: IC50 HT29, converted into μg/mL) was 15.6 µg/mL, the IC50 ([5]; 72 h, read-out: IC50 A2780cis) was 84.3 µM and the IC50 ([5]; read-out: IC50 A2780cis, converted into μg/mL) was 25.8 µg/mL. For the same molecule, the IC50 [6, 11] was 42.1 µM and the IC50 ([6]; MCF7, read-out: IC50 MCF7, converted into μg/mL) was 12.9 µg/mL.
